# Reference: publication PMC9653409, “Generative deep learning enables the discovery of a potent and selective RIPK1 inhibitor” (Nature Communications, 2022)
# What was measured:
# HT29 cells = experiment: TSZ-induced HT29 cell necroptosis model (CCK8); type: cell-based; conditions: Homo sapiens, HT-29
# Method: Cell necroptosis protection assays were performed in 96-well cell culture plates. Cells were plated in each well and cultured at 37 °C overnight. […] The cell survival rate was determined using a CCK8 cell viability assay kit and CLARIOstar (v5.61). […] All experiments were performed at least two times, and each EC50 value was expressed as mean ± standard deviation (SD).
# pRIPK1, pRIPK3, pMLKL = experiment: TNFα-induced SIRS mouse model: liver western blot; type: in vivo, C57BL/6 female mice; conditions: 40 mg/kg i.p.
# Method: The liver in the SIRS model and the colon in the IBD model were harvested, homogenated and sonicated in RIPA lysis buffer.
# The cell proteins or tissue proteins were separated in a polyacrylamide gel and transferred to a methanol-activated polyvinylidene fluoride membrane. The membrane was blocked for 2 h in Tris-buffered saline plus Tween-20 containing 5% milk and then immunoblotted sequentially with primary and secondary antibodies. Detection was performed with an ECL chemiluminescence kit (Abbkine). The antibodies used were human RIPK1 antibody (R&D, 334640, 1:1000), mouse RIPK1 antibody (Affinity, DF2642, 1:1000), human phospho-RIP (Ser166) rabbit mAb (Cell Signaling Technologies, 65746, 1:1000), mouse phospho-RIP (Ser321) rabbit mAb (Cell Signaling Technologies, 38662, 1:1000), human RIPK3 (B-2) antibody (Santa Cruz, sc-374639, 1:250), mouse RIPK3 antibody (Abcam, ab62344, 1:1000), human anti-RIP3 (phospho S227) antibody (Abcam, ab209384, 1:2000), mouse anti-RIP3 (phospho T231 + S232) antibody (Abcam, ab205421, 1:500), anti-MLKL (58–70) antibody (Sigma, M6697, 1:250), human anti-MLKL (phospho S358) antibody (Abcam, ab187091, 1:1000), mouse anti-MLKL (phospho S345) antibody (Abcam, ab196436, 1:1000), and β-actin (Proteintech, 66009-1-Ig, 1:1000).
# DSS-induced IBD [1] = experiment: DSS-induced IBD mouse model: survival; type: in vivo, C57BL/6 female mice; design: key to 1 means death, 0 means survival: 1 means death; 0 means survival
# Method: DSS (3% w/v) was administered in drinking water ad libitum for 7 d (from day 0 to day 7). DSS solution was replaced three times on day 2, day 4, and day 6. […] Three mice in each group were killed at random on day 7, and distal colon tissues were collected for analysis. The mice weight and survival rate were recorded daily.
# DSS-induced IBD [2] = experiment: DSS-induced IBD mouse model: colon H&E and S100a9 immunohistochemistry; type: in vivo, C57BL/6 female mice; conditions: 40 mg/kg i.p., day 7
# Method: The heart, liver, spleen, lung, kidney and colon tissues were fixed directly in 4% paraformaldehyde (24 h), embedded in paraffin, and stained with H&E following standard procedures. All images were acquired using a Pannoramic MIDI scanner. The colon tissues were fixed in 4% paraformaldehyde for 24 h. The tissues were sliced to a thickness of […], deparaffinized with xylene, and rehydrated with graded ethanol. The tissue sections were then placed in a repair box filled with citric acid (pH 6.0) antigen retrieval buffer for antigen retrieval in a microwave oven followed by the quenching of endogenous peroxidase activity in 3% hydrogen peroxide. The sections were incubated overnight at 4 °C with primary antibody (S100a9, 73425, CST), which was prepared in PBS (pH 7.4) according to the manufacturer’s instructions. The sections were then washed three times with PBS, incubated for 1 h with the appropriate secondary antibodies, and staining with freshly prepared DAB color developing solution. Subsequently, the sections were counterstained with hematoxylin and mounted in non-aqueous mounting medium. All images were acquired using a Pannoramic MIDI scanner.
# RIPK1 = target: T1, RIPK1 (Homo sapiens, UniProt Q13546); experiment: RIPK1 kinase assay, ADP-Glo assay; type: biochemical
# T1 sequence (Q13546 1-671): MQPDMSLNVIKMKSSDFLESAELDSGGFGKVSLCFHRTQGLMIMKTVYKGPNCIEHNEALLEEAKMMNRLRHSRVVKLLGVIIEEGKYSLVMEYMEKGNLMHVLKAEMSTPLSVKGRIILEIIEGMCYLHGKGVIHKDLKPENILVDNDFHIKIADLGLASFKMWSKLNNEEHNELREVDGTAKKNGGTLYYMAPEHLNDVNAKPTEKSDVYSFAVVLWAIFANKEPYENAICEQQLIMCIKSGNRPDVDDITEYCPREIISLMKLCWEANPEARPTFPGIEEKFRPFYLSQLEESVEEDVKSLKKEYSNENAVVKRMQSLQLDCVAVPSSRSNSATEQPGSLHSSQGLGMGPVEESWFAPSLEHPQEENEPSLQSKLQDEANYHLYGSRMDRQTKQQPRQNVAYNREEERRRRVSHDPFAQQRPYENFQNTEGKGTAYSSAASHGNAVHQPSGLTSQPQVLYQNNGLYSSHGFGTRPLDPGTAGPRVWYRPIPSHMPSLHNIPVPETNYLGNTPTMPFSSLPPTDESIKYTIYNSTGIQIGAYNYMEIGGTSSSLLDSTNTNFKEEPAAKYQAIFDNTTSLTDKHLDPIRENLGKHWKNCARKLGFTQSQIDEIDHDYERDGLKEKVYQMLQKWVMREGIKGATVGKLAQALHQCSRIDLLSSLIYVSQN
compound,measurement,setting,value
CC(C)C(=O)Nc1nc2cc(-c3ccc4c(c3)c(C(=O)NC(C)c3ccccc3)cn4C)ccn2n1 (centres unmarked) [RI-962],viability at 56 pM,HT29 cells; 0.000056 μM,20.2%
same,viability at 0.000169 µM,HT29 cells; 0.000169 μM,21.7%
same,viability at 0.000508 µM,HT29 cells; 0.000508 μM,21.7%
same,viability at 0.001524 µM,HT29 cells; 0.001524 μM,23.4%
same,viability at 0.004572 µM,HT29 cells; 0.004572 μM,36.3%
same,viability at 0.013717 µM,HT29 cells; 0.013717 μM,78.8%
same,viability at 0.041152 µM,HT29 cells; 0.041152 μM,96.7%
same,viability at 0.123457 µM,HT29 cells; 0.123457 μM,109%
same,viability at 0.37037 µM,HT29 cells; 0.370370 μM,110%
same,viability at 1.11111 µM,HT29 cells; 1.111111 μM,107%
same,viability at 3.33333 µM,HT29 cells; 3.333333 μM,109%
same,viability at 10 µM,HT29 cells; 10.000000 μM,109%
same,EC50,"HT29 cells; HT29 treated with TSZ, 24 h, read-out: EC50",10 nM
same,level of pRIPK1 in liver (western blot),"pRIPK1, pRIPK3, pMLKL",substantially reduced the level of phosphorated RIPK1 (pRIPK1)
same,survival rate,"DSS-induced IBD [1]; 40 mg/kg i.p. once a day for 10 d, 3% DSS 7 d",100%
same,"1 means death, 0 means survival","DSS-induced IBD [1]; Figure 9f, individual mice, time 14",0
same,infiltration by S100a9-positive cells,DSS-induced IBD [2],no infiltration by S100a9-positive cells was observed
same,tissue damage in the colons (histopathology),DSS-induced IBD [2],substantially decreased tissue damage
same,inhibition at 0.000152416 µM,RIPK1; 0.152416 nM,-7.04%
same,inhibition at 0.000457247 µM,RIPK1; 0.457247 nM,-2.09%
same,inhibition at 0.00137174 µM,RIPK1; 1.371742 nM,5.59%
same,inhibition at 0.00411523 µM,RIPK1; 4.115226 nM,34.1%
same,inhibition at 0.0123457 µM,RIPK1; 12.345679 nM,80%
same,inhibition at 0.037037 µM,RIPK1; 37.037037 nM,94%
same,inhibition at 0.111111 µM,RIPK1; 111.111111 nM,95.3%
same,inhibition at 0.333333 µM,RIPK1; 333.333333 nM,96.3%
same,inhibition at 1 µM,RIPK1; 1000.000000 nM,98.1%
same,inhibition at 3 µM,RIPK1; 3000.000000 nM,99.3%
same,IC50,RIPK1; ADP-Glo assay,5.9 nM
